Test results taken from article PMC4347201, “The jasmonate-responsive GTR1 transporter is required for gibberellin-mediated stamen development in Arabidopsis” (Nature Communications, 2015).

What was measured:
GTR2/NPF2.11 = biological target: T1, GTR2/NPF2.11 (Arabidopsis thaliana, UniProt Q9LV10); assay: uptake into Xenopus oocytes, UPLC/TOFMS; type: cell-based; details: pH 5, 24 h uptake, kulori-based buffer
T1 construct: forward primer starts ATGGAGAGAAAGCCTCTTG
T1 sequence (Q9LV10 1-616): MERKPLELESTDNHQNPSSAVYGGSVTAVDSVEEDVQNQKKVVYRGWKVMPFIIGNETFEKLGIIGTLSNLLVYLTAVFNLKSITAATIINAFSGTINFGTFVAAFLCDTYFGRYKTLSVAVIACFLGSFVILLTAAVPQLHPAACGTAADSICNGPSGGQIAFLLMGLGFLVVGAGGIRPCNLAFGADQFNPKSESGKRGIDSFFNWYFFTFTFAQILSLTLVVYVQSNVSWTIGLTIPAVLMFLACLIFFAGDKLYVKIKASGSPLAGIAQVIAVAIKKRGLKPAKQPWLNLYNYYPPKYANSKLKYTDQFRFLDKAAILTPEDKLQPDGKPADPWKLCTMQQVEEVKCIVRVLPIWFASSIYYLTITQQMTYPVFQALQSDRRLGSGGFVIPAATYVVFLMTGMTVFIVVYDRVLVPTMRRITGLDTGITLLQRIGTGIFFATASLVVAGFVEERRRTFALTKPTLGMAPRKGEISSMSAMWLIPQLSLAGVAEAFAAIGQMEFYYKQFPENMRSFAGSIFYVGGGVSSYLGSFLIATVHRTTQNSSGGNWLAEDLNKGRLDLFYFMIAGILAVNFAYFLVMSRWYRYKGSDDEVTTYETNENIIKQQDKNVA

[1] = substrate: C=C1C[C@]23C[C@@]1(O)CC[C@H]2[C@@]12C=C[C@H](O)[C@@](C)(C(=O)O1)[C@H]2[C@@H]3C(=O)O; assay: uptake into Xenopus oocytes, UPLC/TOFMS; type: cell-based, Arabidopsis thaliana; details: pH 5.0, 17 °C, 24 h uptake, kulori-based buffer, 1-2,000 μM GA3

Molecule | uptake into Xenopus oocytes, UPLC/TOFMS (GTR2/NPF2.11) | Km [1] [µM]
C=C1C[C@]23C[C@@]1(O)CC[C@H]2[C@@]12C=C[C@H](O)[C@@](C)(C(=O)O1)[C@H]2[C@@H]3C(=O)O [GA3] | GTR2, a close homologue of GTR1, also transported GA3 into oocytes | 
GTR1/NPF2.10 (Arabidopsis thaliana) (protein) MKSRVILNHRDRRDKNHNNNNTNHYTQVDTMERKPLEVEPSTTTTNTDVVDSFEEEQRKIVYRGWKVMPFIIGNETFEKLGIIGTLSNLLVYLTSVFNLKSYTAATIINAFSGTINFGTFIAAFLCDTYFGRYKTLSVAVIACFLGSFVILLTAAIPSLHPVACGNKISCEGPSVGQILFLLMGLGFLVVGAGGIRPCNLAFGADQFNPKSESGKKGINSFFNWYFFTFTFAQIISLTAVVYIQSNVSWTIGLIIPVALMFLACVIFFAGDRLYVKVKASGSPLAGIARVIAAAIKKRGLKPVKQPWVNLYNHIPSNYANTTLKYTDQFRFLDKAAIMTPEEKLNSDGTASDPWKLCTLQQVEEVKCIVRVIPIWFASTIYYLAITIQMTYPVFQALQSDRRLGSGGFRIPAATYVVFLMTGMTVFIIFYDRVLVPSLRRVTGLETGISLLQRIGAGFTFAIMSLLVSGFIEERRRNFALTKPTLGMAPRTGEISSMSALWLIPQLTLAGIAEAFAAIGQMEFYYKQFPENMKSFAGSIFYVGAGVSSYLASFLISTVHRTTAHSPSGNWLAEDLNKAKLDYFYFMLTGLMVVNMAYFLLMARWYRYKGGNDEDITEIETNEEETKQQQLQDKNSV |  | 301.25 ± 225.46
